Results published in PMC5949348, “The Metabolism of Separase Inhibitor Sepin-1 in Human, Mouse, and Rat Liver Microsomes” (Frontiers in Pharmacology, 2018).
Where “and” joins values, the source holds several entries; their conditions need not be identical. Equal entries are not always repeated. Where two headings read alike, the source gives them in different places.

Legend:
[1] = system: cancer cell lines including breast cancer, leukemia, and neuroblastoma; parameters: method as in Zhang et al., 2014; conditions: ref Zhang et al., 2014; cited from earlier work
[2] = system: separase; parameters: method as in Zhang et al., 2014; conditions: ref Zhang et al., 2014; cited from earlier work
[3] = target: T1, CYP3A4 (Homo sapiens, UniProt P08684); assay: Inhibition of sepin-1 on CYP3A4; format: in vitro ADME
T1 construct: purchased XenoTech
T1 sequence (P08684 whole entry): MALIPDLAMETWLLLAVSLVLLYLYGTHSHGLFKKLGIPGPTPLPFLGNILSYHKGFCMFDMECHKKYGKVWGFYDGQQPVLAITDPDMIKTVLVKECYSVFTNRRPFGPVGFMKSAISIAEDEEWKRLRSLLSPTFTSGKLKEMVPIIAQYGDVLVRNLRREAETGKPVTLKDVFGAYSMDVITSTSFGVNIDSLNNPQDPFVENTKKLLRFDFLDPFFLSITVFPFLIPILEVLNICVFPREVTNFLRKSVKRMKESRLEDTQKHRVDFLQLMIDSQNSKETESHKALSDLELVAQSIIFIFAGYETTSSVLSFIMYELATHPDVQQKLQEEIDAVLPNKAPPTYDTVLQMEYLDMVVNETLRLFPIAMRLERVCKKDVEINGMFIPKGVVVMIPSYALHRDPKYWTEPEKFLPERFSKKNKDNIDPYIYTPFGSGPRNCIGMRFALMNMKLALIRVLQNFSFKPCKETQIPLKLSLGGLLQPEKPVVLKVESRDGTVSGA
Description: (§1) Incubations were performed in 1× PBS (pH 7.4), containing 0, 0.156, 0.312, 0.625, 1.25, 2.5, 5, 10, 20, or 40 μM sepin-1, 2 pmol of each cDNA-expressed P450 enzymes, and corresponding substrates: CYP1A2 (phenacetin, 40 μM, 20 min incubation), 2B6 (efavirenz, 20 μM, 30 min), 2C8 (paclitaxel, 10 μM, 30 min), 2C9 (diclofenac, 5 μM, 15 min), 2C19 [(S)-mephenytoin, 40 μM, 20 min], 2D6 (dextromethorphan, 5 μM, 15 min), and CYP3A4 (midazolam, 3 μM, 10 min) in a final volume of 190 μl. After 5 min of pre-incubation at 37°C, the reaction was initiated by adding 10 μl of 20 mM NADPH (final concentration 1.0 mM) and continued for a specific time as presented above with gentle shaking. Incubations without sepin-1 were used as controls. Reactions were terminated by the addition of 200 μl of ice-cold methanol, vortexing for 30 s, and centrifuging at 15,000 × g for 15 min. Each supernatant was transferred to an auto sampler vial and 5.0 μl was injected on to UHPLC coupled with a QQQMS system for the specific metabolite analysis. A MRM method was used. Incubations were conducted in duplicate. Positive controls were performed by using a known specific inhibitor for each of the isoform assays (Supplementary Table S1). […]

[4] = target: T2, CYP2C19 (Homo sapiens, UniProt P33261); assay: Inhibition of sepin-1 on CYP2C19; format: in vitro ADME
T2 construct: purchased XenoTech
T2 sequence (P33261 whole entry): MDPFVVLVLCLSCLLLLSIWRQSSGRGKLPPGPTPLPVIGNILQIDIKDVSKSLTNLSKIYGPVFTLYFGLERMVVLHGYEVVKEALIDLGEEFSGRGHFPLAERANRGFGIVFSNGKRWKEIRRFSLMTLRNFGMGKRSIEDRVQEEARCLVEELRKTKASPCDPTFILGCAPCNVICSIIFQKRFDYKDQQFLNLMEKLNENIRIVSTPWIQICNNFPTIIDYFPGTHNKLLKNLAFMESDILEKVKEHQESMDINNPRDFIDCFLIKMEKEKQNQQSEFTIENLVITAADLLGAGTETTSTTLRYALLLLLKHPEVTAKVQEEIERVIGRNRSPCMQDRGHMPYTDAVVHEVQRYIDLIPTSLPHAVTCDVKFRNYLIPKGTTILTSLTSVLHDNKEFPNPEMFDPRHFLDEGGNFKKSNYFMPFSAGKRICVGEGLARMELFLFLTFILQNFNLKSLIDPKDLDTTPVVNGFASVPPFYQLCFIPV
Description: as §1

[5] = Metabolism of sepin-1 in human liver microsomes; format: in vitro ADME; conditions: 30 μM sepin-1, NADPH 1.0 mM, 30 min
Description: Incubations were conducted in 1× phosphate-buffered saline (1× PBS, pH 7.4), containing 30 μM sepin-1, 1.0 mg HLM, MLM, RLM, or 2 pmol of each cDNA-expressed P450 enzyme (control, CYP1A2, 2A6, 2B6, 2C8, 2C9, 2C19, 2D6, 2E1, and CYP3A4) in a final volume of 190 μl. After 5 min of pre-incubation at 37°C, the reaction was initiated by adding 10 μl of 20 mM NADPH (final concentration 1.0 mM) and continued for 30 min, with shaking at 37°C. Incubations lacking NADPH served as controls. Reactions were terminated with 200 μl of ice-cold methanol, followed by vortexing for 30 s and centrifuging at 15,000 × g for 15 min. Each supernatant was transferred to an auto sampler vial, and 5.0 μl was injected on to UHPLC coupled with a QTOFMS system for metabolite analysis. Incubations were conducted in quadruplicate for HLM, in triplicate for MLM and RLM, and in duplicate for cDNA-expressed P450 enzymes.
The separation of sepin-1 and its metabolites was achieved using a 1260 Infinity Binary LC System (Agilent Technologies, Santa Clara, CA, United States) equipped with 100 mm × 2.1 mm (Agilent XDB C18) column. The column temperature was maintained at 40°C. The flow rate was 0.3 ml/min, with a gradient ranging from 2% to 98% aqueous acetonitrile containing 0.1% formic acid in a 15-min run. QTOFMS was operated in a positive mode with electrospray ionization. Ultra-high pure nitrogen was applied as the drying gas (12 l/min) and the collision gas. The drying gas temperature was set at 325°C, and the nebulizer pressure was kept at 35 psi. The capillary voltages were set at 3.5 kV. […]
Mass chromatograms and mass spectra were acquired by MassHunter Workstation Data Acquisition Software (Agilent, Santa Clara, CA, United States) in centroid and profile formats from m/z 100 to 1000. […] For the QQQMS data, QQQ Quantitative Analysis Software (Agilent, Santa Clara, CA, United States) was used for metabolite analysis. […] Statistical differences between two groups were determined by Student’s t-test.

In the case of `CC1(C)[N+]([O-])=c2ccc([N+](=O)[O-])cc2=[N+]1[O-]` [Sepin-1, 2,2-dimethyl-5-nitro-2H-benzimidazole-1,3-dioxide], the “Inhibition of cancer cell line growth” value [1] is listed as “selectively inhibits the growth of cancer cell lines”, the “Inhibition of separase activity (mode)” value [2] is listed as “inhibits separase activity in a non-competitive way” and the IC50 ([3]; FDA classification bands, read-out: Inhibition potency class on CYP3A4) is listed as 1 to 10 µM. The IC50 ([3]; substrate midazolam 3 μM, 10 min, metabolite 1-O-midazolam, co-incubation, read-out: IC50 on CYP3A4) was < 10 µM and 8.7 µM, the IC50 ([4]; FDA classification bands, read-out: Inhibition potency class on CYP2C19) was 1 to 10 µM and the IC50 ([4]; substrate (S)-mephenytoin 40 μM, 20 min, metabolite 4-O-mephenytoin, co-incubation, read-out: IC50 on CYP2C19) was < 10 µM and 8.9 µM. For the same molecule, the “Metabolism of parent in HLM (in words)” value [5] was “metabolized rapidly”.
